Patent US12648948B2, “Methods and compositions for treating cancer” (UNITED STATES GOVERNMENT AS REPRESENTED BY THE DEPARTMENT …, priority 2017, dated 2026)

Assays:
[1] = tested on: JNK-Axl-ERK signaling axis; assay: Signal transduction in intracranial GBM9 tumors (Western blot, IHC); type: in vivo, mice; details: thalidomide given with erlotinib
Description: (§1) To detect the in vivo levels of TNF, 1×10^6 GBM9 cells were injected into the right flanks of nude mice. When the subcutaneous tumor reached a volume of around 200 mm^3, the mice were treated with erlotinib to monitor the upregulation of TNF protein. The animals were dosed consecutively for 1, 2, 7 or 14 days and then sacrificed. The animals without treatment were considered as control (0-day treatment). Tumor tissues were rinsed in PBS and protein was extracted to analyze the TNF levels using ELISA and also used for western blot. To detect the protein expression in mice brain tumor tissues upon drug treatment, the same procedure was performed in orthotopic models. Additionally, with orthotopic models, mice were divided into four groups (control gavage group, erlotinib group, thalidomide group and erlotinib plus thalidomide, n=3). After 48 hours treatment tumors were harvested and subjected to Western blot and immunostaining.
Tumors from nude mice brains were fixed in 10% formalin and embedded in paraffin. Paraffin-embedded sections were cut at five-micrometer thickness. Immunohistochemical staining was performed using the ABC streptavidin-biotin method with the Vectastain ABC kit (Vector Laboratories, Burlingame, CA, USA) according to the manufacturer's protocol. Briefly, after deparaffinization and rehydration, endogenous peroxidase activity was quenched by a 10 min incubation in 3% H2O2. For antigen retrieval, the tissue sections were boiled in 10 mM sodium citrate buffer (pH 6.0) for 20 minutes. Binding of primary anti-pERK (1:100, Cell Signaling Technology, 4376) or anti-pJNK antibody (1:200, Cell signaling Technology, 4668) or anti-pAXL(1:400, R&D, AF2228) was carried out overnight at 4° C. The signal was detected by using the Sigmafast 3,3′-Diaminobenzidine tablets (DAB; Sigma, St. Louis MO). The sections were counterstained lightly with hematoxylin. The IHC staining intensity was scored semiquantitatively as: 0=No positive staining; 1=1-25% tumor cells stained, 2=26%-75% tumor cells stained and 3=>75% tumor cells stained.

GBM9 cells [2] = assay: Cell proliferation by cell counting (trypan blue dye exclusion); type: cell-based, human; details: 72 hours
Description: FIG. 15A GBM9 cells were plated in 6 well plated and treated with drugs as indicated. Cell proliferation was measured through cell counting using the trypan blue dye exclusion test. […] Erlotinib vs erlotinib+SP: P=0.0016, t=7.60, d.f.=4; Erlotinib vs erlotinib+U: P=0.0012, t=8.24, d.f.=4.

[3] = mouse, in vivo
GBM = details: human, in vivo; cited from earlier work
TNF [4] = assay: TNF mRNA (qRT-PCR) and TNF ELISA in glioma cells; type: cell-based, human
Description: Total RNA was isolated by TRIzol Reagent (Ambion). cDNA Reverse Transcription were performed by using High-Capacity cDNA Reverse Transcription Kit (Applied Biosystems). PCR primers were synthesized by IDT (Coralville, IA). Each PCR was carried out in triplicate in a 20 μl volume using SYBR Green Master Mix (Applied Biosystems) for 15 minutes at 95° C. for initial denaturing, followed by 40 cycles of 95° C. for 15 s and 60° C. for 60 s in ViiA 7 Real-Time PCR System (Applied Biosystems). At least two independent experiments were done. Values for each gene were normalized to expression levels of GAPDH mRNA.
2×10^6 cells were incubated in serum-free or EGF free medium containing different concentrations of erlotinib or DMSO. After 48 hours, supernatant and cell lysates were collected. Supernatant medium was concentrated 5-10-fold with Pierce protein concentrator (ThermoFisher). TNF protein concentration in supernatant, cell lysates and tissue extracts was determined by ELISA using a commercial TNF detection kit (ThermoFisher) according to manufacturer's instructions. Additionally, GAS6 protein concentration in supernatant was measured by ELISA kit (LifeSpan BioSciences).

TNF [5] = assay: TNF ELISA on GBM9 xenograft tumor extracts; type: in vivo, mice
Description: as §1

[6] = tested on: U87EGFRwt and U87EGFRvIII cells; assay: AlamarBlue cell viability assay, established GBM cell lines; type: cell-based, human; details: established GBM cell lines expressing EGFRwt or EGFRvIII, erlotinib 10 μM
Description: Cell viability assay was conducted using AlamarBlue cell viability assay kit (ThermoFisher) following manufacturer's protocol. Cells were cultured in Corning 96-well black plates with clear bottom (5000 cells/well). Drugs were added to cells for 72 hour following detection using POLARstar Omega Microplate Reader (excitation at 544 nm and emission at 590 nm) (BMG LABTECH, Germany).

[7] = tested on: AP-1 transcriptional activity; assay: AP-1 luciferase reporter assay; type: cell-based, human; details: erlotinib 1 μM, 24 h; GBM9 and U87EGFRwt cells
Description: Cells were plated in 48 well dishes to 70%-80% confluence followed by with […] or 3xAP1pGL3 reporter plasmid using lipofectamine 2000. A dual-luciferase reporter assay system was used according to manufacturer's instructions (Promega, Madison WI). Firefly luciferase activity was measured in a luminometer and normalized on the basis of Renilla luciferase activity. Experiments were done in triplicate and 3 independent experiments were done.

ERK = assay: Western blot, ERK activation (pERK) in glioma cells; details: GBM9 neurospheres
Description: Western blot analysis was performed according to standard protocols. In all experiments, before the addition of EGF or erlotinib established cells were cultured overnight in serum free DMEM and primary GBM neurospheres were EGF starved overnight. Cells not treated with EGF or erlotinib were also serum or EGF starved.

JNK, Axl and ERK = assay: Signal transduction in subcutaneous GBM9 tumors; type: in vivo, mice
Description: as §1

GBM9 cells [8] = assay: Annexin-FACS assay and Caspase 3/7 activation; type: cell-based, human; details: Annexin V flow cytometry and Caspase 3/7 activation
Description: Annexin assay was performed by using Annexin—V-FLUOS Staining kit (Roche applied Science). Cells (1×10^6) were plated in 6 well plates and treated with drugs or vehicle alone. After 72 hours cells were trypsinized and washed 2 times with 1×PBS. The cells were incubated for 15 minutes at room temperature with Propidium Iodide and Annexin—V-FLUOS labeling solution in incubation buffer. Annexin and/or PI positive cells were detected by Flow Cytometry.
Caspase activity in the supernatant was measured using the Caspase-Glo 3/7 Assay (Promega, G8091) following manufacturer's instructions. Briefly, 72 hours after treatments, cells were washed by cold PBS and total cell lysates were prepared. 50 μg of total protein per sample was added per well of a 96 well plate and was incubated with 100 μl Caspase 3/7 reagent for 30 minutes. The luminescence of each sample was measured using a luminometer. All experiments included at least 3 replicates per group and were repeated 3 times.

Akt, STAT3 = assay: Western blot, Akt and STAT3 activation in glioma cells; type: cell-based, human
Description: Western blot analysis was performed according to standard protocols.

C#Cc1cccc(Nc2ncnc3cc(OCCOC)c(OCCOC)cc23)c1 [erlotinib]
JNK-Axl-ERK signaling axis in intracranial tumors (Western blot) ([1]; erlotinib 50 mg/kg): Activation of the JNK-Axl-ERK signaling axis can be detected in intracranial tumors | pAxl, pJNK and pERK immunostaining of brain sections ([1]; orthotopic model): higher expression of pAxl, pJNK and pERK compared to vehicle group | Cell growth / cell numbers, combination with erlotinib (GBM9 cells [2]): significant decreases in cell numbers | Body weight of orthotopic models [3]: Body weight losses | Clinical efficacy in GBM patients (GBM): also not effective | TNF mRNA in GBM622 cells (TNF [4]; GBM622 neurospheres (very low EGFR), erlotinib 100 nM, 24 h): No increase in TNF is detected | TNF mRNA levels (TNF [4]; erlotinib 100 nM (GBM9, GBM39) or 1 μM (U87EGFRwt, U87EGFRvIII)): significant and rapid increase in TNF mRNA levels | TNF protein level (ELISA) (TNF [4]; supernatants of erlotinib treated cells): increase in TNF was confirmed at a protein level | TNF level in subcutaneous mouse tumors (TNF [5]; GBM9 flank tumors, erlotinib 50 mg/kg): increase in TNF can be detected 1 day after administration of erlotinib | Time to upregulation of TNF in GBM xenograft tumors (TNF [5]; erlotinib): about 24 hours | Cell viability, erlotinib alone [6]: completely resistant | AP-1 reporter activity [7]: increased activity of the AP-1 reporter | ERK activation after addition of erlotinib (ERK; erlotinib 1 μM, early time points): decreased after addition of erlotinib | Feedback reactivation of ERK under continued EGFR inhibition (ERK; erlotinib 1 μM or afatinib 100 nM): reactivation of ERK is seen at 24-48 h | Time at which JNK-ERK-Axl activation subsides in GBM xenograft tumors (JNK, Axl and ERK; erlotinib): about 2 weeks | Erlotinib induced activation of JNK, Axl and ERK in mouse tumors (JNK, Axl and ERK; subcutaneous GBM9 tumors, erlotinib 50 mg/kg): peaking around 2-7 days and subsiding by 14 days | Mode of cell death, erlotinib combined with Axl, JNK, ERK or TNF inhibition (GBM9 cells [8]): apoptotic cell death | Akt or STAT3 activation (Akt, STAT3; GBM9 neurospheres, erlotinib 1 μM): did not detect an increase in Akt or STAT3 activation | STAT3 and Akt activation at higher concentration (Akt, STAT3; glioma cells, erlotinib 10 μM or afatinib 10 μM): STAT3 and Akt activation are suppressed
